Results reported in article PMC4588393 (EBioMedicine, 2015).
Where a name gives a salt, the structure may show the parent alone. Bridge positions count the residues as written; N and C are the ends. Square brackets hold non-standard residues; d marks the D form. Peptide text beside a SMILES is read from it. * marks the point of attachment. X1 = CC[C@H](C)CCCCC(=O)*; Dab = NCC[C@H](N)C(=O)O

Tests used:
S. Typhimurium 14028 = assay type: cell-based, Salmonella enterica Typhimurium
[1] = system: TIVAR + S. Typhimurium 14028; set-up: species or system BALB/c mice; details: in vivo
[2] = system: TIVAR − S. Typhimurium var. 5 (04)-9639; set-up: species or system BALB/c mice; details: in vivo
[3] = in vivo; cited from earlier work

Question: With COc1cc(Cc2cnc(N)nc2N)cc(OC)c1OC [Trimethoprim, trimethoprim] as the compound, how does the “resistance linked to growth in LPM pH 5.5 medium (MIC ratio of LPM pH 5.5/pH 7.0 to MHB pH 5.5/pH 7.2)” value (S. Typhimurium 14028) read?
Answer: 4 fold

Question: With O=C(O)c1cn(C2CC2)c2cc(N3CCNCC3)c(F)cc2c1=O [Ciprofloxacin, ciprofloxacin] as the compound, how does the mouse survival post-infection [1] read?
Answer: at least 10 days

Question: With CC[C@H](C)CCCCC(=O)N[C@@H](CCN)C(=O)N[C@H](C(=O)N[C@@H](CCN)C(=O)N[C@H]1CCNC(=O)[C@H]([C@@H](C)O)NC(=O)[C@H](CCN)NC(=O)[C@H](CCN)NC(=O)[C@H](CC(C)C)NC(=O)[C@@H](CC(C)C)NC(=O)[C@H](CCN)NC1=O)[C@@H](C)O [Colistin sulfate, colistin sulfate] (X1-[Dab]T[Dab][Dab][Dab][dL]L[Dab][Dab]T; lactam 4-C (inferred); N-terminus assumed) as the compound, how does the “resistance linked to growth in LPM pH 5.5 medium (MIC ratio of LPM pH 5.5/pH 7.0 to MHB pH 5.5/pH 7.2)” value (S. Typhimurium 14028) read?
Answer: 256 fold

Question: Which “effect of pH and media composition on efficacy of antibiotic” value (“effect of pH and media composition” for short) (S. Typhimurium 14028) does the source give for CO/N=C(\C(=O)N[C@@H]1C(=O)N2C(C(=O)O)=C(CSC(=O)c3ccco3)CS[C@H]12)c1csc(N)n1 [Ceftiofur, ceftiofur] here?
Answer: unaffected

Question: Which “effect of pH and media composition” value (S. Typhimurium 14028) does the source give for CN(C)[C@@H]1C(O)=C(C(N)=O)C(=O)[C@@]2(O)C(O)=C3C(=O)c4c(O)cccc4[C@@](C)(O)[C@H]3C[C@@H]12 [Tetracycline, tetracycline] here?
Answer: unaffected

Question: Which “effect of pH and media composition” value (S. Typhimurium 14028) does the source give for O=C(N[C@H](CO)[C@H](O)c1ccc([N+](=O)[O-])cc1)C(Cl)Cl [Chloramphenicol, chloramphenicol] here?
Answer: unaffected

Question: For CC[C@H](C)CCCCC(=O)N[C@@H](CCN)C(=O)N[C@H](C(=O)N[C@@H](CCN)C(=O)N[C@H]1CCNC(=O)[C@H]([C@@H](C)O)NC(=O)[C@H](CCN)NC(=O)[C@H](CCN)NC(=O)[C@H](CC(C)C)NC(=O)[C@@H](Cc2ccccc2)NC(=O)[C@H](CCN)NC1=O)[C@@H](C)O [Polymyxin B, polymyxin B] (X1-[Dab]T[Dab][Dab][Dab][dF]L[Dab][Dab]T; lactam 4-C (inferred); N-terminus assumed), which “resistance linked to growth in LPM pH 5.5 medium (MIC ratio of LPM pH 5.5/pH 7.0 to MHB pH 5.5/pH 7.2)” value (S. Typhimurium 14028) is on record?
Answer: 64 fold

Question: What about the mouse survival post-infection [2] of the same compound?
Answer: at least 10 days

Question: And the “time within which all treated mice died” value ([1]; mouse)?
Answer: ≤ 7 days

Question: What about the “circulating PMB levels” value [3] of the same compound?
Answer: 0.5 to 2.5 mg/L
